Source: patent US4614741A, “Depot antiinflammatory agents” (priority 1983, dated 1986)

Columns and labels:
[1] = test system: carrageenan-induced oedema of the rat paw; experiment: Inhibition of carrageenan-induced oedema of the rat paw after i.m. depot administration; format: in vivo, rat (male, Bor:WISW (SPF-Cpb))
Method: The antioedemic and analgesic effect of the test substances after i.m. administration of an appropriate depot formulation was determined using the carrageenan-induced oedema of the rat paw or using the Randall-Selittotest [Arch. int. Pharmacodyn.
The tests were carried out with male rats [strain: Bor:WISW (SPF-Cpb), weight about 200 g]. The animals receive a single i.m. administration of a depot product, and the antiinflammatory effect was checked on subsequent days by inducing oedema with carrageenan.
The paw volumes were measured by the method of F. Kemper and G. Ameln [Z. ges. exp.
Various doses were administered in a constant volume of 0.03 ml administered per rat (see Table).

[2] = humans; p.o. versus i.m. in aqueous solution; cited from earlier work

SMILES: CN1C(C(=O)Nc2ccccn2)=C(O)c2ccccc2S1(=O)=O [compound 22, 4-Hydroxy-2-methyl-N--2-pyridinyl-2H--1,2-benzothiazine-3-carboxamide 1,1-dioxide]
- % inhibition of oedema, 2nd day after inj. ([1]; 0.6 mg/kg, solution): 33.2%
- % inhibition of oedema, 2nd day after inj. ([1]; 0.6 mg/kg, suspension): 33%
- % inhibition of oedema, 4th day after inj. ([1]; 0.6 mg/kg, solution): 39.3%
- % inhibition of oedema, 4th day after inj. ([1]; 0.6 mg/kg, suspension): 39%

SMILES: COc1ccc2cc([C@H](C)C(=O)O)ccc2c1 [compound 10, D-2-(6-Methoxy-2-naphthyl)propionic acid]
- % inhibition of oedema, 2nd day after inj. ([1]; 2.5 mg/kg, suspension): 42.8%
- % inhibition of oedema, 4th day after inj. ([1]; 2.5 mg/kg, suspension): 22.3%

SMILES: CN1C(C(=O)Nc2nccs2)=C(O)c2ccccc2S1(=O)=O [compound 21, 4-Hydroxy-2-methyl-N--2-thiazolyl-2H--1,2-benzothiazine-3-carboxamide 1,1-dioxide]
- % inhibition of oedema, 2nd day after inj. ([1]; 15 mg/kg, suspension): 42.9%
- % inhibition of oedema, 4th day after inj. ([1]; 15 mg/kg, suspension): 30.4%

SMILES: COc1ccc2c(c1)c(CC(=O)O)c(C)n2C(=O)c1ccc(Cl)cc1 [compound 18, 1-(p-Chlorobenzoyl)-5-methoxy-2-methylindole-3-acetic acid]
- % inhibition of oedema, 2nd day after inj. ([1]; 10.0 mg/kg, solution): 58.2%
- % inhibition of oedema, 2nd day after inj. ([1]; 10.0 mg/kg, suspension): 58.2%
- % inhibition of oedema, 4th day after inj. ([1]; 10.0 mg/kg, solution): 29.5%
- % inhibition of oedema, 4th day after inj. ([1]; 10.0 mg/kg, suspension): 29.5%

SMILES: O=C(O)c1cc(-c2ccc(F)cc2F)ccc1O [compound 3, 2',4'-Difluoro-4-hydroxy-3-biphenyl-carboxylic acid]
- % inhibition of oedema, 2nd day after inj. ([1]; 5 mg/kg, suspension): 26%
- % inhibition of oedema, 4th day after inj. ([1]; 5 mg/kg, suspension): 13%

SMILES: CC(C)Cc1ccc(C(C)C(=O)O)cc1 (centres unmarked) [compound 11, 2-(p-Isobutylphenyl)-propionic acid]
- % inhibition of oedema, 2nd day after inj. ([1]; 13 mg/kg, suspension): 40%
- % inhibition of oedema, 4th day after inj. ([1]; 13 mg/kg, suspension): 45%

SMILES: CC(C(=O)O)c1cccc(C(=O)c2ccccc2)c1 (centres unmarked) [compound 13, 2-(m-Benzoylphenyl)-propionic acid]
- maximum level in the plasma [2]: nor do the maximum level in the plasma, or the plasma and renal clearance differ
